Source: US20260217672A1, “BENZAMIDE COMPOUNDS FOR TREATMENT OF BACTERIAL INFECTIONS” (Hoffmann-La Roche Inc., priority 2022, published 2026)
≈ marks a conversion by molar mass, not a printed value.

How the values were obtained:
[1] = tested on: Escherichia coli ATCC 25922; assay: Minimal Inhibitory Concentration (MIC) broth dilution assay; type: cell-based; settings: ATCC25922, 20 h, read-out: MIC Escherichia coli ATCC 25922
In short: (§1)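 Broth dilution MIC in cation-adjusted Mueller Hinton broth, final inoculum 5×10^5 CFU/mL, serial 2-fold compound dilutions from DMSO stocks. Plates incubated 20 hours at 35° C. in ambient air; MIC read visually as lowest concentration inhibiting visible growth.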

[2] = tested on: Klebsiella pneumonia ATCC 43816; assay: as above; type: cell-based; settings: Klebsiella pneumoniae, ATCC43816, 20 h, read-out: MIC Klebsiella pneumoniae ATCC43816
In short: as §1

[3] = Human microsome stability assay; type: in vitro ADME; settings: 1 μM test compound, 0.5 mg/mL liver microsomal protein, NADPH regenerating system, 37° C.; <7 low, 7-16.2 medium, >16.2 high
Experimental: The human microsomal stability assay is used for early assessment of metabolic stability of a test compound in human liver microsomes.
Human liver microsomes (Cat.NO.: 452117, Corning, USA) were pre-incubated with test compound for 10 minutes at 37° C. in 100 mM potassium phosphate buffer, pH 7.4. The reactions were initiated by adding NADPH regenerating system. The final incubation mixtures contained 1 μM test compound, 0.5 mg/mL liver microsomal protein, 1 mM MgCl2, 1 mM NADP, 1 unit/mL isocitric dehydrogenase and 6 mM isocitric acid in 100 mM potassium phosphate buffer, pH 7.4. After incubation times of 0, 3, 6, 9, 15 and 30 minutes at 37° C., 300 μL of cold acetonitrile (including internal standard) was added to 100 μL incubation mixture to terminate the reaction. Following precipitation and centrifugation, the amount of compound remaining in the samples were determined by LC-MS/MS. Controls of no NADPH regenerating system at zero and 30 minutes were also prepared and analyzed. […] (Human microsome clearance: <7 mL/min/kg (low); 7-16.2 mL/min/kg (medium); >16.2 mL/min/kg (high))

LPS synthesis pathway = settings: Bioorganic Chemistry 102 (2020) 104055; cited from earlier work
[4] = tested on: efflux-deficient E. coli strains; settings: Bioorganic Chemistry 102 (2020) 104055; cited from earlier work

SMILES	MIC [1] [µg/mL]	MIC [2] [µg/mL]	Clearance of Human microsome [3] [mL/min/kg]	LPS synthesis pathway inhibition activity (LPS synthesis pathway)	antibiotic activity against efflux-deficient E. coli strains [4]
O=C(c1cnn2cccnc12)N1CCc2cc(S(=O)(=O)N3CCN(c4cc(C(F)(F)F)cc(Cl)n4)CC3)ccc21 [Example 034, [5-[4-[6-Chloro-4-(trifluoromethyl)-2-pyridyl]piperazin-1-yl]sulfonylindolin-1-yl]-pyrazolo[1,5-a]pyrimidin-3-yl-methanone]	0.92 (≈ 1.55 µM)	0.92 (≈ 1.55 µM)	6.2	–	–
O=C(CNCCO)N1CCc2cc(S(=O)(=O)N3CCN(c4cc(C(F)(F)F)cc(Cl)n4)CC3)ccc21 [Example 041, 1-[5-[4-[6-Chloro-4-(trifluoromethyl)-2-pyridyl]piperazin-1-yl]sulfonylindolin-1-yl]-2-(2-hydroxyethylamino)ethanone]	1 (≈ 1.82 µM)	8.3 (≈ 15.1 µM)	6.2	–	–
CC(=O)Oc1ccc(C(=O)N2CCc3cc(S(=O)(=O)N4CCN(c5cc(C(F)(F)F)cc(Cl)n5)CC4)ccc32)cc1OC(C)=O [Example 043, [2-Acetoxy-4-[5-[4-[6-chloro-4-(trifluoromethyl)-2-pyridyl]piperazin-1-yl]sulfonylindoline-1-carbonyl]phenyl]acetate]	4.2 (≈ 6.3 µM)	2.1 (≈ 3.15 µM)	6.2	–	–
NCCCN1CCN(c2cccc(C(=O)Nc3ccc(S(=O)(=O)N4CCN(c5cc(C(F)(F)F)cc(Cl)n5)CC4)cc3)c2)CC1 [Example 068, 3-[4-(3-Aminopropyl)piperazin-1-yl]-N-[4-[4-[6-chloro-4-(trifluoromethyl)-2-pyridyl]piperazin-1-yl]sulfonylphenyl]benzamide]	1 (≈ 1.5 µM)	2.1 (≈ 3.15 µM)	6.2	–	–
O=C(Nc1ccc(S(=O)(=O)N2CCN(c3cc(C(F)(F)F)cc(Cl)n3)CC2)cc1)c1cccc(CNCCCN2CCNCC2)c1 [Example 078, N-[4-[4-[6-chloro-4-(trifluoromethyl)-2-pyridyl]piperazin-1-yl]sulfonylphenyl]-3-[(3-piperazin-1-ylpropylamino)methyl]benzamide]	1.4 (≈ 2.06 µM)	5.7 (≈ 8.38 µM)	6.2	–	–
CC(=O)N1CCc2cc(S(=O)(=O)N3CCN(c4cc(Cl)cc(C(F)(F)F)c4)CC3)ccc21 [Example F-1, reference compound]	> 24	> 24	14	LPS synthesis pathway inhibition activity	antibiotic activity
